In patent publication US20140135310A1, “SULPHONAMIDE DERIVATIVES OF ALICYCLIC AMINES FOR THE TREATMENT OF CENTRAL NERVOUS SYSTEM DISEASES” (Adamed Sp. z o.o., priority 2011, published 2014):

Columns and labels:
[1] = molecular target: T1, 5-HT1A receptor (rat hippocampus) (Rattus norvegicus, UniProt P19327); experiment: Radioligand binding assay, serotoninergic 5-HT1A receptors; details: binding assay result in %, Table 5a;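 note: test compound at 1 µM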
T1 construct: hippocampus; from tissue; host or cells: rat hippocampus
T1 sequence (P19327 1-422): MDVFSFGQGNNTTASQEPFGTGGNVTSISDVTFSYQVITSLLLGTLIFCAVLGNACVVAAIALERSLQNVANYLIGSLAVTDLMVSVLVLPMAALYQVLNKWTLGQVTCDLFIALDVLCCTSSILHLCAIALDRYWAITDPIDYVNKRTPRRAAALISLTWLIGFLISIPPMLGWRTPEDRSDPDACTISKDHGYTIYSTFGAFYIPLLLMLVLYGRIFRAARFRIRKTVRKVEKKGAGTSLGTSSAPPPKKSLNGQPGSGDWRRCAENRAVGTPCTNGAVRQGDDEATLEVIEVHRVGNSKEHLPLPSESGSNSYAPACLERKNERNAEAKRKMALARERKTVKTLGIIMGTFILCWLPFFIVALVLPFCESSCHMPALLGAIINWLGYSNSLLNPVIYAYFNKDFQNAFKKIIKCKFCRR

[2] = tested on: α1 adrenergic receptors (rat cerebral cortex); experiment: Radioligand binding assay, adrenergic α1 receptors; details: test compound 1×10^−6 M
Summary of the method: (§1)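 Values derive from radioligand displacement, with non-specific binding defined by excess cold ligand and detection by scintillation. Hill-fit IC50s were converted to Ki via Cheng-Prusoff using Scatchard-derived Kd; percent inhibition of control specific binding also reported.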

[3] = molecular target: T2, 5-HT7 receptor (Homo sapiens, UniProt P34969); experiment: Radioligand binding assay, serotoninergic 5-HT7 receptors; details: binding assay result in %, Table 5a;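 note: test compound at 1 µM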
T2 construct: purchased PerkinElmer
Summary of the method: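 Ki values used the Cheng–Prusoff equation, with KD from Scatchard analysis, applied to IC50 from Hill fits of human 5-HT7 radioligand competition curves. Bound radioligand was counted by scintillation, and excess unlabelled ligand set the non-specific binding.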

[4] = molecular target: T3, H1 histaminergic receptors (Homo sapiens, UniProt P35367); experiment: Radioligand binding assay, histaminergic H1 receptors; details: human recombinant (HEK-293 cells), [3H]pyrilamine 1 nM
T3 construct: expressed in transfected cells; host or cells: HEK-293 cells
Summary of the method: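 Competition binding at human H1 receptors; specific binding taken as total minus non-specific binding in excess unlabelled ligand, scintillation read-out. IC50 from Hill-equation fit of competition curves; Ki by Cheng-Prusoff using radioligand concentration and Kd (from Scatchard plot).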

[5] = molecular target: T4, receptors D4.4 (Homo sapiens, UniProt P21917); experiment: Radioligand binding assay, dopaminergic D4 (D4.4) receptors; details: test compound 1×10^−6 M
T4 sequence (P21917 1-419): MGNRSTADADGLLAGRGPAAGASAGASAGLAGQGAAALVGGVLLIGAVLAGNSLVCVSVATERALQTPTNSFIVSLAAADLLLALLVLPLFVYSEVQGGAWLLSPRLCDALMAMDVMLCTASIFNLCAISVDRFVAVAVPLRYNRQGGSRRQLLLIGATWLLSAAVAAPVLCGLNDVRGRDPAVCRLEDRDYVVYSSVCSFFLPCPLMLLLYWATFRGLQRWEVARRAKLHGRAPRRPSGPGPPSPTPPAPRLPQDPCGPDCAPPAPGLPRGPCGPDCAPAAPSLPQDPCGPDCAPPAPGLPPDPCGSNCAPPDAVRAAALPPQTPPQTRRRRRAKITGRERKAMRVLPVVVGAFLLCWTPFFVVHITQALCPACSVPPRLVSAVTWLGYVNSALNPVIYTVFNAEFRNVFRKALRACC
Summary of the method: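 Scintillation read-out. Specific = total − nonspecific (excess cold ligand). Data as % of control specific binding / % inhibition; IC50 by Hill fit; Ki = IC50/(1+L/KD), KD from Scatchard plot.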

[6] = molecular target: T5, 5-HT2A receptor (Homo sapiens, UniProt P28223); experiment: Radioligand binding assay, serotoninergic 5-HT2A receptors; details: for Ki: read-out: Inhibition constants Ki, 5-HT2A; for inhibition at 1 µM: binding assay result in %, Table 5a
T5 construct: purchased PerkinElmer
Summary of the method: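 Competition curves from scintillation-counted specific binding (total minus binding with excess unlabelled ligand) were Hill-fitted to give IC50, converted to Ki via Cheng-Prusoff using Scatchard-derived Kd.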

[7] = molecular target: T6, M3 muscarinic receptors (Homo sapiens, UniProt P20309); experiment: Radioligand binding assay, muscarinic M3 receptors; details: test compound 1×10^−6 M
T6 construct: expressed in transfected cells; host or cells: CHO cells
Summary of the method: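 Radioligand competition binding, detected by scintillation counting; non-specific binding defined with excess unlabelled ligand. Results given as % inhibition of control specific binding; IC50 from Hill-equation fit of competition curves, Ki via Cheng-Prusoff with radioligand KD from Scatchard plot.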

[8] = tested on: σ receptors; experiment: Radioligand binding assay, σ receptors; details: rat cerebral cortex, [3H]DTG 8 nM
Summary of the method: as §1

T2 sequence (P34969 whole entry): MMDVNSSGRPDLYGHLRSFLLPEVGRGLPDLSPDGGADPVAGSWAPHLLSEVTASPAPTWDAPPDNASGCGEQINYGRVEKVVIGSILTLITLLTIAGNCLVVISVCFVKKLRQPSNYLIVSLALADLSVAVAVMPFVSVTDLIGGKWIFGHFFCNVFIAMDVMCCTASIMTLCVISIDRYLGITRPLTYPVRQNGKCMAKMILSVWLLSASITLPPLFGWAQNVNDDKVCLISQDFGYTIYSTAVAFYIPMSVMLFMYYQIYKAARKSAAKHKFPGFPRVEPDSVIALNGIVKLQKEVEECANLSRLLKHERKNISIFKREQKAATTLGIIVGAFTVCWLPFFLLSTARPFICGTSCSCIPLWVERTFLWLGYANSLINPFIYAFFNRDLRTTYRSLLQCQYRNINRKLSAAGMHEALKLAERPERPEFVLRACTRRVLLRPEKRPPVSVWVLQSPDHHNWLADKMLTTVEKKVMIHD
T5 sequence (P28223 whole entry): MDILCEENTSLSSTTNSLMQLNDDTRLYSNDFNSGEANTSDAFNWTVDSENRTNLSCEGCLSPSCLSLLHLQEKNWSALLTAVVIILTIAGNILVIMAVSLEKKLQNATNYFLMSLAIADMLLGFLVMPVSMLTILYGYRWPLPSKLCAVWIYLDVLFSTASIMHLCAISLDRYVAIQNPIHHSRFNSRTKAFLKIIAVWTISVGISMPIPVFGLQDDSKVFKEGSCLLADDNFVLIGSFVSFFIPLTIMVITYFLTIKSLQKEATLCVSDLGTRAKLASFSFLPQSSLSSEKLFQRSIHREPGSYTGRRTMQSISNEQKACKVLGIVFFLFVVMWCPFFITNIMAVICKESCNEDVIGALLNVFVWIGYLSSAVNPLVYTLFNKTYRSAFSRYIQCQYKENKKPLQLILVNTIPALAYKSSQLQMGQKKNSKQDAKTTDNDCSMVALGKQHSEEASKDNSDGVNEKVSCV
T3 sequence (P35367 whole entry): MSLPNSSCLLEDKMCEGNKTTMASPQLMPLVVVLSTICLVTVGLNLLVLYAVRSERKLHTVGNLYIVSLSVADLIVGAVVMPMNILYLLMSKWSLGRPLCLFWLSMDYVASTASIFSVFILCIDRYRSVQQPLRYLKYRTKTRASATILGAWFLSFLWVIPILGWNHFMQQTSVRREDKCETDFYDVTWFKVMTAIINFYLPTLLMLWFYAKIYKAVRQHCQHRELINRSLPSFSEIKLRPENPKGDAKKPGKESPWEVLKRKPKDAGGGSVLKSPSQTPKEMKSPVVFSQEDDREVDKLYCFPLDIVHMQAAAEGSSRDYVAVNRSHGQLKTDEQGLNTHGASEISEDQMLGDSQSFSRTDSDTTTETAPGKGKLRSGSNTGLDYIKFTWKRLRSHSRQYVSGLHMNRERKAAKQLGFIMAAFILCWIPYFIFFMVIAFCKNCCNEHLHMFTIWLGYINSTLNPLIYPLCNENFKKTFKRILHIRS
T6 sequence (P20309 whole entry): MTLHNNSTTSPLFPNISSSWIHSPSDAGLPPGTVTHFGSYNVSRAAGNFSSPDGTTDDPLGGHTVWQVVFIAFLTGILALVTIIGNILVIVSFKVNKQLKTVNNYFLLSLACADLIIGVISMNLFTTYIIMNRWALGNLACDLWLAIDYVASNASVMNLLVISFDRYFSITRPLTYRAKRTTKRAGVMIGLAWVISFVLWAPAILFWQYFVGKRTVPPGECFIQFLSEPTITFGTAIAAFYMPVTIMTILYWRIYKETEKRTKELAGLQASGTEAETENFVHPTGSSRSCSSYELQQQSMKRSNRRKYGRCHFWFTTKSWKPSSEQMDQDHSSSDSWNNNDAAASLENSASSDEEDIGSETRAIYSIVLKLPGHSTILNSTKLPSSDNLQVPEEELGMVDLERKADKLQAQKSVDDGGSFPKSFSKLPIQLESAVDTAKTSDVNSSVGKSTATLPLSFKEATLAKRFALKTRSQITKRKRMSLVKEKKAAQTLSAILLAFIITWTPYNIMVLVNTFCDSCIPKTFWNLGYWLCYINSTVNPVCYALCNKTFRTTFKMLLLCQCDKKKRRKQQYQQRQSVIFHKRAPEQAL

Row | Structure (SMILES) | inhibition at 1 µM [1] [%] | α1 [%] [2] [%] | inhibition at 1 µM [3] [%] | inhibition at 1 µM [4] [%] | inhibition at 1 µM [5] [%] | Ki [6] [nM] | inhibition at 1 µM [7] [%] | σ [%] [8] [%] | inhibition at 1 µM [6] [%]
1 | O=S(=O)(N[C@@H]1CCN(CCCc2noc3cc(F)ccc23)C1)c1cc2ccccc2o1 [Compound 214, N-[(3R)-1-[3-(6-Fluoro-1,2-benzoxazol-3-yl)propyl]pyrrolidin-3-yl]benzo-furan-2-sulphonamide] | 34 | 91 | 98 | 52 | 61 | 2.1 | 11 | 84 | –
2 | O=S(=O)(N[C@H]1CCN(CCCc2noc3cc(F)ccc23)C1)c1cc2ccccc2o1 [Compound 215, N-[(3S)-1-[3-(6-Fluoro-1,2-benzoxazol-3-yl)propyl]pyrrolidin-3-yl]benzo-furan-2-sulphonamide] | 52 | 89 | 98 | 50 | 88 | 1.2 | 39 | 81 | –
3 | Cc1cc(S(=O)(=O)NC2CCN(CCCc3noc4cc(F)ccc34)C2)c(C)s1 (centres unmarked) [Compound 221, N-[1-[3-(6-Fluoro-1,2-benzoxazol-3-yl)propyl]pyrrolidin-3-yl]-2,5-dimethyl-thiophene-3-sulphonamide] | 67 | 85 | 95 | 66 | 93 | – | 12 | 83 | 101
4 | Cc1cc(S(=O)(=O)N[C@@H]2CCN(CCCc3noc4cc(F)ccc34)C2)c(C)s1 [Compound 222, N-[(3R)-1-[3-(6-Fluoro-1,2-benzoxazol-3-yl)propyl]pyrrolidin-3-yl]-2,5-dimethyl-thiophene-3-sulphonamide] | 72 | 92 | 102 | 79 | 98 | – | 18 | 95 | 99
5 | Cc1cc(S(=O)(=O)N[C@H]2CCN(CCCc3noc4cc(F)ccc34)C2)c(C)s1 [Compound 223, N-[(3S)-1-[3-(6-Fluoro-1,2-benzoxazol-3-yl)propyl]pyrrolidin-3-yl]-2,5-dimethyl-thiophene-3-sulphonamide] | 49 | 86 | 100 | 52 | 92 | – | 25 | 89 | 99
6 | O=S(=O)(N[C@@H]1CCN(CCCc2noc3cc(F)ccc23)C1)c1csc2ccccc12 [Compound 224, N-[(3R)-1-[3-(6-Fluoro-1,2-benzoxazol-3-yl)propyl]pyrrolidin-3-yl]benzothiophene-3-sulphonamide] | 76 | 89 | 103 | 60 | 101 | 1.6 | 25 | 91 | –
7 | O=S(=O)(N[C@H]1CCN(CCCc2noc3cc(F)ccc23)C1)c1csc2ccccc12 [Compound 225, N-[(3S)-1-[3-(6-Fluoro-1,2-benzoxazol-3-yl)propyl]pyrrolidin-3-yl]benzothiophene-3-sulphonamide] | 62 | 93 | 100 | 57 | 91 | 0.9 | 23 | 96 | –
8 | COc1ccc2cc(S(=O)(=O)N[C@@H]3CCN(CCCc4noc5cc(F)ccc45)C3)ccc2c1 [Compound 230, N-[(3R)-1-[3-(6-Fluoro-1,2-benzoxazol-3-yl)propyl]pyrrolidin-3-yl]-6-methoxy-naphthalene-2-sulphonamide] | 77 | 83 | 87 | 71 | 88 | 0.4 | 15 | 90 | –
9 | COc1ccc2cc(S(=O)(=O)N[C@H]3CCN(CCCc4noc5cc(F)ccc45)C3)ccc2c1 [Compound 231, N-[(3S)-1-[3-(6-Fluoro-1,2-benzoxazol-3-yl)propyl]pyrrolidin-3-yl]-6-methoxy-naphthalene-2-sulphonamide] | 34 | 79 | 88 | 54 | 89 | 1.9 | 22 | 87 | –
10 | O=S(=O)(NCC1CCN(CCCc2noc3cc(F)ccc23)C1)c1ccc2cc(Cl)ccc2c1 (centres unmarked) [Compound 237, 6-Chloro-N-[[1-[3-(6-fluoro-1,2-benzoxazol-3-yl)propyl]pyrrolidin-3-yl]methyl]naphthalene-2-sulphonamide] | 45 | 88 | 96 | 66 | 48 | – | 16 | 88 | 97
11 | Cc1c(S(=O)(=O)NCC2CCN(CCCc3noc4cc(F)ccc34)C2)sc2ccc(Cl)cc12 (centres unmarked) [Compound 238, 5-Chloro-N-[[1-[3-(6-fluoro-1,2-benzoxazol-3-yl)propyl]pyrrolidin-3-yl]methyl]-3-methyl-benzothiophene-2-sulphonamide] | 71 | 82 | 94 | 65 | 48 | 3 | 26 | 95 | 99
12 | O=S(=O)(NCC1CCN(CCCc2noc3cc(F)ccc23)C1)c1ccc2ccccc2c1 (centres unmarked) [Compound 240, N-[[1-[3-(6-Fluoro-1,2-benzoxazol-3-yl)propyl]pyrrolidin-3-yl]methyl]-naphthalene-2-sulphonamide] | 30 | 86 | 90 | 55 | 57 | – | 21 | 92 | 99
13 | O=S(=O)(NCC1CCN(CCCc2noc3cc(F)ccc23)C1)c1ccc(-c2ccccc2)cc1 (centres unmarked) [Compound 241, N-[[1-[3-(6-Fluoro-1,2-benzoxazol-3-yl)propyl]pyrrolidin-3-yl]methyl]-4-phenyl-benzenesulphonamide] | 39 | 62 | 100 | 69 | 33 | – | 19 | 88 | 97
14 | Cn1ccc2cc(S(=O)(=O)NCC3CCN(CCOc4cccc5c4OCCO5)C3)ccc21 (centres unmarked) [Compound 308, N-[[1-[2-(2,3-Dihydro-1,4-benzodioxin-5-yloxy)ethyl]pyrrolidin-3-yl]methyl]-1-methyl-indole-5-sulphonamide] | 98 | 69 | 83 | 37 | 26 | – | 13 | 91 | 91
